Measurements reported in patent US20250049776A1, “AUTOPHAGY INDUCING COMPOUNDS AND USES THEREOF, IN PARTICULAR FOR A SYSTEMIC TREATMENT OF DISEASES AND CONDITIONS” (Samsara Therapeutics Inc., priority 2021, published 2025).
Structures can show the parent of a compound that is named as a salt.

Tested on: dopaminergic Tyrosine hydroxylase (TH)-positive neurons injured with MPTP
Assay: Cellular model of Parkinson's disease (MPTP/MPP+ injury of primary mesencephalic neurons)
Assay type: cell-based, Rat
Conditions: concentrations of 500 μM and 1 μM
Text: This model (run by Neuro-Sys SAS, France) is based on a primary culture of dopaminergic Tyrosine hydroxylase (TH)-positive neurons injured with the dopaminergic neurons-specific toxin (DA-toxin) 1-methyl-4-phenyl-1,2,3,6 tetrahydropyridine (MPTP, a prodrug of MPP*) (Dauer and Przedborski, 2003). Any substances reducing DA-toxin neurotoxicity may be useful as a new therapeutic agent for the treatment or prevention of PD.
Primary culture of mesencephalic neurons: Rat dopaminergic neurons were cultured as described by Visanji et al., 2008 and Callizot et al., 2019. Briefly, pregnant female rat (Wistar) of 15 days of gestation were killed using a deep anesthesia with CO2 chamber and a cervical dislocation. The midbrains obtained from 15-day-old rat embryos (Janvier, France) were dissected under a microscope. The embryonic midbrains will be removed and placed in ice-cold medium of Leibovitz (L15) containing 2% of Penicillin-Streptomycin (PS) and 1% of bovine serum albumin (BSA). The ventral portion of the mesencephalic flexure, a region of the developing brain rich in dopaminergic neurons, was used for the cell preparations.
The midbrains were dissociated by trypsinisation for 20 min at 37° C. (solution at a final concentration of 0.05% trypsin and 0.02% EDTA). The reaction was stopped by the addition of Dulbecco's modified Eagle's medium (DMEM) containing DNAase I grade II (0.5 mg/mL) and 10% of foetal calf serum (FCS). Cells were then mechanically dissociated by 3 passages through a 10 ml pipette. Cells were then centrifuged at 180×g for 10 min at +4° C. on a layer of BSA (3.5%) in L15 medium. The supernatant was discarded and the cell pellets re-suspended in a defined culture medium consisting of Neurobasal supplemented with B27 (2%), L-glutamine (2 mM) and 2% of PS solution and 10 ng/mL of Brain-derived neurotrophic factor (BDNF) and 1 ng/mL of Glial-Derived Neurotrophic Factor (GDNF). Viable cells were counted in a Neubauer cytometer using the trypan blue exclusion test. The cells were seeded at a density of 40,000 cells/well in 96 well-plates (pre-coated with poly-L-lysine) and maintained in a humidified incubator at 37° C. in 5% CO2/95% air atmosphere. Half of the medium was changed every 2 days with fresh medium. The wells of first and last lines and columns […] (to avoid any edge effect) and were be filled with sterile water.
Test compounds and MPTP: • i) Pre-incubation. On day 6 of culture, the test compounds were dissolved in PBS or DMSO and incubated for 1 hour before the MPTP exposure. • ii) Injury. One hour after the application of test compound, MPTP was added to a final concentration of 4 μM, diluted in control medium still in presence of compounds/inhibitors for 48h. Test compounds were tested on one culture in 96-well plate (n=6 culture wells per condition).
Immunostaining: TH and α-Synuclein. 48 Hours after intoxication, the cell culture supernatant was removed, and the cells were fixed by a solution of 4% paraformaldehyde in PBS, pH=7.3 for 20 min at room temperature. The cells were washed twice in PBS, and then permeabilized. Non-specific sites were blocked with a solution of PBS containing 0.1% of saponin and 1% FCS for 15 min at room temperature. The cultures were incubated with: (a) monoclonal anti-Tyrosine Hydroxylase (TH) antibody produced in mouse at dilution of 1/10000 in PBS containing 1% FCS, 0.1% saponin, for 2 hours at room temperature, and (b) polyclonal anti-alpha synuclein (α-synuclein) antibody produced in rabbit at dilution of 1/200 in PBS containing 1% FCS, 0.1% saponin, for 2 h at room temperature.
Automatic computer analysis. For each condition, 20 pictures (representing the whole well area) were automatically taken using ImageXpress® (Molecular Devices) at 10× magnification (20 pictures, for TH and α-synuclein into TH neurons) using the same acquisition parameters. From images, analyses was directly and automatically performed by MetaXpress® (Molecular Devices).

CCCN(C(=O)c1csc(-c2cnn(-c3ccccc3)c2)n1)[C@@H]1CCNC1 [Compound 171, (R)-2-(1-phenyl-1H-pyrazol-4-yl)-N-propyl-N-(pyrrolidin-3-yl)thiazole-4-carboxamide hydrochloride]
decrease in α-syn area per dopaminergic TH positive neuron compared to MPP+ injury alone: > 18% | increase in the length of the neurite network of dopaminergic TH positive neurons compared to the MPP+ injury alone: > 31% | increase in the number of dopaminergic TH positive neurons compared to MPP+ injury alone: > 25%
